Assay results as given in US6465433B1, “Boronic ester and acid compounds, synthesis and uses” (Millennium Pharmaceuticals, Inc., priority 1994, dated 2002).

Legend:
Human Leukocyte Elastase = molecular target: T1, Human Leukocyte Elastase (Homo sapiens, UniProt P08246); assay: Kinetic assay: inhibition of Human Leukocyte Elastase; format: biochemical; conditions: Table V
T1 sequence (P08246 30-267): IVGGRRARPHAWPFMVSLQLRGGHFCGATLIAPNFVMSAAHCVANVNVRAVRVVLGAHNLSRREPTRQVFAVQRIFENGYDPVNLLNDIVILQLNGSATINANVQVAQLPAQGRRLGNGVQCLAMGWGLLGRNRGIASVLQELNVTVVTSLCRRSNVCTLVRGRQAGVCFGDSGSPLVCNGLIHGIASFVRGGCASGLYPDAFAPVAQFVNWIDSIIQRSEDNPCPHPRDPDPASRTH

C2C12 cells = assay: Inhibition of protein degradation in C2C12 cells; format: cell-based, mouse; conditions: Mus musculus, C2C12; 35S-methionine labelled cells; percent decrease in TCA soluble radioactivity; media with 50% serum
Method: One approach to testing drug candidates for their ability to inhibit the ATP-ubiquitin-dependent degradative process is to measure proteolysis in cultured cells (Rock, et al., Cell 78:761 (1994)). For example, the degradation of long-lived intracellular proteins can be measured in mouse C2C12 myoblast cells. Cells are incubated with ^35S-methionine for 48 hours to label long-lived proteins and then chased for 2 hours with medium containing unlabeled methionine. After the chase period, the cells are incubated for 4 hours in the presence or absence of the test compound. The amount of protein degradation in the cell can be measured by quantitating the trichloroacetic acid soluble radioactivity released from the pre-labeled proteins into the growth medium (an indicator of intracellular proteolysis).
C2C12 cells (a mouse myoblast line) were labelled for 48 hrs with ^35S-methionine. The cells were then washed and preincubated for 2 hrs in the same media supplemented with 2 mM unlabelled methionine. The media was removed and replaced with a fresh aliquot of the preincubation media containing 50% serum, and a concentration of the compound to be tested. The media was then removed and made up to 10% TCA and centrifuged. The TCA soluble radioactivity was counted. Inhibition of proteolysis was calculated as the percent decrease in TCA soluble radioactivity.

Cathepsin B = Cathepsin B (Homo sapiens, UniProt P07858); assay: Kinetic assay: inhibition of Cathepsin B; format: biochemical; conditions: Table IV
From the text: [Worded in the source for another target; this target is reported under the same test.] (§1) Table II summarizes results from kinetic experiments that measured the inhibition of the 20S proteasome by compounds having the formula of compound (1) or (2). P, AA^1, AA^2, AA^3, and Z^1 and Z^2 represent the structures present on formula (1) or (2). The protocol for the kinetic assay described in Tables II-V is as described in Rock et al., Cell 78:761-771 (1994). In these tables, Ki values are reported, which are dissociation constants for the equilibrium that is established when enzyme and inhibitor interact to form the enzyme:inhibitor complex. The reactions were performed using SDS-activated 20S proteasome from rabbit muscle. The substrate used was Suc-LLVY-AMC.

Cathepsin G = molecular target: T2, Cathepsin G (Homo sapiens, UniProt P08311); assay: Kinetic assay: inhibition of Cathepsin G; format: biochemical; conditions: Table V
T2 sequence (P08311 21-244): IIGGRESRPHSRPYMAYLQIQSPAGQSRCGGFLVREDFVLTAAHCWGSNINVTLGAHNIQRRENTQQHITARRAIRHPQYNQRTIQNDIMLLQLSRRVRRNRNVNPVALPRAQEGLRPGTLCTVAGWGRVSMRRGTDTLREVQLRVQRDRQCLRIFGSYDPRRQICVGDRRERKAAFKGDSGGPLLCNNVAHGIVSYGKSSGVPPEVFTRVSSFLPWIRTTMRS

[1] = molecular target: SDS-activated 20S proteasome from rabbit muscle (Oryctolagus cuniculus, UniProt G1SU71+G1T4Q9); assay: Kinetic assay: inhibition of the 20S proteasome; format: biochemical
Method: as §1, with “P,” for “Table II summarizes results from kinetic experiments that measured the inhibition of the 20S proteasome by compounds having the formula of compound (1) or (2). P,”

[2] = molecular target: Human Pancreatic Chymotrypsin; assay: Kinetic assay: inhibition of Human Pancreatic Chymotrypsin; format: biochemical; conditions: Table V
[3] = Table II, SDS-activated 20S proteasome from rabbit muscle, substrate Suc-LLVY-AMC

| SMILES | Ki (Human Leukocyte Elastase) [nM] | IC50 (C2C12 cells) [nM] | Ki (Cathepsin B) [nM] | Ki (Cathepsin G) [nM] | Ki [1, 3] [nM] | Ki ([1]; Table IV) [nM] | Ki ([1]; Table V) [nM] | Ki [2] [nM] |
| --- | --- | --- | --- | --- | --- | --- | --- | --- |
| CC(C)C[C@H](NC(=O)[C@H](CC(C)C)NC(=O)[C@H](CC(C)C)NC(=O)OCc1ccccc1)B(O)O [MG-262] | 15 | 280 | 6100 | 55 | 0.035 | 0.035 | 0.03 | 7 |
| CC(C)C[C@H](NC(=O)[C@H](Cc1cccc2ccccc12)NC(=O)OCc1ccccc1)B1O[C@@H]2C[C@@H]3C[C@@H](C3(C)C)[C@]2(C)O1 [MG-267] | 150 |  |  | 33000 | 0.1 |  | 0.1 | 2300 |
